Experimental data taken from patent US20050245534A1, “Inhibitors of the 11-beta-hydroxysteroid dehydrogenase Type 1 enzyme” (priority 2004, published 2005).

Columns and labels:
Male CD-1 mice = assay: Mouse Dehydrocorticosterone Challenge Model, plasma corticosterone; assay type: in vivo
Experimental: Male CD-1 (18-22 g) mice (Charles River, Madison, Wis.) were group housed and allowed free access to food and water. Mice are brought into a quiet procedure room for acclimation the night before the study. Animals are dosed with vehicle or compound at various times (pretreatment period) before being challenged with 11-dehydrocorticosterone (Steraloids Inc., Newport, R.I.). Thirty minutes after challenge, the mice are euthanized with CO2 and blood samples (EDTA) are obtained by cardiac puncture and immediately placed on ice. Blood samples were then spun, the plasma was removed, and the samples frozen until further analysis was performed. Corticosterone levels were obtained by ELISA (American Laboratory Prod., Co., Windham, N.H.) or HPLC/mass spectroscopy.

[1] = tested on: Male B6.VLep ob(-/-) (ob/ob) mice; assay: ob/ob Mouse Model of Type 2 Diabetes; assay type: in vivo; conditions: three weeks
Experimental: Male B6.VLep^ob(−/−) (ob/ob) mice and their lean littermates (Jackson Laboratory, Bar Harbor, Me.) were group housed and allowed free access to food (Purina 5015) and water. Mice were 6-7 weeks old at the start of each study. On day 0, animals were weighed and postprandial glucose levels determined (Medisense Precision-X™ glucometer, Abbott Laboratories). […] Animals were weighed, and postprandial glucose measurements were taken weekly throughout the study. On the last day of the study, 16 hours post dose (unless otherwise noted) the mice were euthanized via CO2, and blood samples (EDTA) were taken by cardiac puncture and immediately placed on ice. Whole blood measurements for HbA1c were taken with hand held meters (A1c NOW, Metrika Inc., Sunnyvale Calif.). Blood samples were then spun and plasma was removed and frozen until further analysis. The plasma triglyceride levels were determined according to instructions by the manufacturer (Infinity kit, Sigma Diagnostics, St. Louis Mo.).

healthy volunteers = conditions: seven days; cited from earlier work

## CC(C(=O)NC1C2CC3CC1CC(O)(C3)C2)N1CCN(c2ccc(C(F)(F)F)cn2)CC1 (stereo not shown) [Compound F, N-[(E)-5-hydroxy-2-adamantyl]-2-{4-[5-(trifluoromethyl)pyridin-2-yl]piperazin-1-yl}propanamide]
Male CD-1 mice; 30 mpk followed by 11-DHC, pretreatment period 0.5 hours
  Plasma corticosterone levels: 1297 ± 121
Male CD-1 mice; 30 mpk followed by 11-DHC, pretreatment period 16 hours
  Plasma corticosterone levels: 1402 ± 99
Male CD-1 mice; 100 mpk followed by 11-DHC, pretreatment period 0.5 hours
  Plasma corticosterone levels: 742 ± 119
Male CD-1 mice; 100 mpk followed by 11-DHC, pretreatment period 16 hours
  Plasma corticosterone levels: 1422 ± 129
[1]; 30 mpk twice daily
  % HbA1c: 7.6 ± 0.6%
  Glucose: 295 ± 31 mg/dL
  Triglycerides: 255 ± 22 mg/dL
[1]; 100 mpk twice daily
  % HbA1c: 6.4 ± 0.5%
  Glucose: 263 ± 21 mg/dL
  Triglycerides: 282 ± 36 mg/dL

## C[C@]12CC(=O)[C@H]3[C@@H](CCC4=CC(=O)CC[C@@]43C)[C@@H]1CC[C@@H]2C(=O)CO [Example 11-DHC, 11-dehydrocorticosterone, reference compound]
Male CD-1 mice; 11-DHC challenge without compound, pretreatment period 0.5 hours
  Plasma corticosterone levels: 1478 ± 180
Male CD-1 mice; 11-DHC challenge without compound, pretreatment period 16 hours
  Plasma corticosterone levels: 1200 ± 86

## CC1(C)[C@@H](OC(=O)CCC(=O)O)CC[C@]2(C)[C@H]3C(=O)C=C4[C@@H]5C[C@@](C)(C(=O)O)CC[C@]5(C)CC[C@@]4(C)[C@]3(C)CC[C@@H]12 [carbenoxolone]
Healthy volunteers
  reduction of IOP: 17%
